From patent US8455499B2, “Alkyne antagonists of lysophosphatidic acid receptors” (Amira Pharmaceuticals, Inc., priority 2008, dated 2013)

Biological target: T1, human LPA1 (Homo sapiens, UniProt Q92633)
T1 construct: the full-length cDNA for human LPA1 was obtained by PCR of the reverse transcription reaction; expressed in transfected cells
Test: HLPA1 Ca Flux assay (LPA1 calcium flux assay)
Assay type: cell-based
Settings: CHO cells stably expressing human LPA1; stimulated by 10 nM LPA; intracellular Ca2+
Description: A 1.1 kb cDNA encoding the human LPA1 receptor was cloned from human lung. Human lung RNA (Clontech Laboratories, Inc. USA) was reverse transcribed using the RETROscript kit (Ambion, Inc.) and the full-length cDNA for human LPA1 was obtained by PCR of the reverse transcription reaction. The nucleotide sequence of the cloned human LPA1 was determined by sequencing and confirmed to be identical to the published human LPA1 sequence (An et al. Biochem. Biophys. Res. Commun. 231:619 (1997). The cDNA was cloned into the pCDNA5/FRT expression plasmid and transfected in CHO cells using lipofectamine 2000 (Invitrogen Corp., USA). Clones stably expressing human LPA1 were selected using hygromycin and identified as cells that show Ca-influx in response to LPA.
Human LPA1 or LPA3 expressing CHO cells are seeded at 20,000-45,000 cells per well in a 96-well poly-D-lysine coated plate one or two days before the assay. Prior to the assay, the cells are washed once with PBS and then cultured in serum-free media overnight. On the day of the assay, a calcium indicator dye (Calcium 4, Molecular Devices) in assay buffer (HBSS with Ca^2+ and Mg^2+ and containing 20 mM Hepes and 0.3% fatty-acid free human serum albumin) is added to each well and incubation continued for 1 hour at 37° C. 10 μl of test compounds in 2.5% DMSO are added to the cells and incubation continued at room temperature for 30 minutes. Cells are the stimulated by the addition of 10 nM LPA and intracellular Ca^2+ measured using the Flexstation 3 (Molecular Devices). IC50s are determined using Graphpad prism analysis of drug titration curves.

T1 sequence (Q92633 whole entry): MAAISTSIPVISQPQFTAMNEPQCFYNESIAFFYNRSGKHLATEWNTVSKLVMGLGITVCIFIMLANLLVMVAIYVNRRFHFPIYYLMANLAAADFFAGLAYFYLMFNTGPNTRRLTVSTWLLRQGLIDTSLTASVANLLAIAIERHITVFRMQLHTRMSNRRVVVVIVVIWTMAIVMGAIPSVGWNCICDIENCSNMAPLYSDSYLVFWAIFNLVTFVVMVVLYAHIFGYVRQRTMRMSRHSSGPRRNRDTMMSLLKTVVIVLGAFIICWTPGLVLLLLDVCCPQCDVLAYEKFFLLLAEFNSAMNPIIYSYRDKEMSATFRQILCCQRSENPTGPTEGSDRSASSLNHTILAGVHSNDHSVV

IC50 [nM] | Compound
< 300 | Cc1noc(-c2ccc(C#CCCC(=O)O)cc2)c1NC(=O)OC(C)c1ccccc1Cl (centres unmarked) [Compound 1-1, 5-(4-{4-[1-(2-Chloro-phenyl)-ethoxycarbonylamino]-3-methyl-isoxazol-5-yl}-phenyl)-pent-4-ynoic acid]
< 300 | Cc1noc(-c2ccc(C#CCCCC(=O)O)cc2)c1NC(=O)OC(C)c1ccccc1Cl (centres unmarked) [Compound 1-2, 6-(4-{4-[1-(2-Chloro-phenyl)-ethoxycarbonylamino]-3-methyl-isoxazol-5-yl}-phenyl)-hex-5-ynoic acid]
< 300 | Cc1noc(-c2ccc(C#CCCCCC(=O)O)cc2)c1NC(=O)OC(C)c1ccccc1Cl (centres unmarked) [Compound 1-3, 7-(4-{4-[1-(2-Chloro-phenyl)-ethoxycarbonylamino]-3-methyl-isoxazol-5-yl}-phenyl)-hept-6-ynoic acid]
< 300 | Cc1noc(-c2ccc(C#CCC(C)(C)C(=O)O)cc2)c1NC(=O)OC(C)c1ccccc1Cl (centres unmarked) [Compound 1-4, 5-(4-{4-[1-(2-Chloro-phenyl)-ethoxycarbonylamino]-3-methyl-isoxazol-5-yl}-phenyl)-2,2-dimethyl-pent-4-ynoic acid]
> 1000 | Cc1noc(-c2ccc(C#CCn3ncc(C(=O)O)c3C(F)(F)F)cc2)c1NC(=O)OC(C)c1ccccc1Cl (centres unmarked) [Compound 2-1, 1-[3-(4-{4-[1-(2-Chloro-phenyl)-ethoxycarbonylamino]-3-methyl-isoxazol-5-yl}-phenyl)-prop-2-ynyl]-5-trifluoromethyl-1H-pyrazole-4-carboxylic acid]
300 to 1000 | Cc1noc(-c2ccc(C#CCn3cc(C(=O)O)cn3)cc2)c1NC(=O)OC(C)c1ccccc1Cl (centres unmarked) [Compound 2-2, 1-[3-(4-{4-[1-(2-Chloro-phenyl)-ethoxycarbonylamino]-3-methyl-isoxazol-5-yl}-phenyl)-prop-2-ynyl]-1H-pyrazole-4-carboxylic acid]
< 300 | Cc1noc(-c2ccc(C#CCn3cnc(C(=O)O)c3)cc2)c1NC(=O)OC(C)c1ccccc1Cl (centres unmarked) [Compound 2-3, 1-[3-(4-{4-[1-(2-Chloro-phenyl)-ethoxycarbonylamino]-3-methyl-isoxazol-5-yl}-phenyl)-prop-2-ynyl]-1H-imidazole-4-carboxylic acid]
< 300 | Cc1noc(-c2ccc(C#CCn3cncn3)cc2)c1NC(=O)OC(C)c1ccccc1Cl (centres unmarked) [Compound 3-1]
